Reference: ChEMBL document CHEMBL1146724, “Enzyme cleavable and biotinylated photoaffinity ligand with diazirine” (Bioorg Med Chem Lett, 2004)

Assay: Km was determined

| Km [µM] | SMILES |
| --- | --- |
| 175 | CC(=O)CCCC[C@@H]1SCC2NC(=O)NC21 (some centres not stated) |
| 750 | N[C@@H](Cc1ccccc1)C(=O)Nc1ccc([N+](=O)[O-])cc1 |
